Results from patent publication US9023789B2, “Amylin analogs and pharmaceutical compositions thereof” (Novo Nordisk A/S, priority 2012, dated 2015).
Like-named read-outs stand apart in the source and are kept apart here. Numbered stars: 1 amine (or outer) side, 2 acyl side, 3 side chain; on linkers, the order of the positions; unused ones are H or OH. Bridge positions count the residues as written; N and C are the ends. Side chains are listed from the residue outwards. Peptide text beside a SMILES is read from it. * marks the point of attachment. C20 diacid = O=C(O)CCCCCCCCCCCCCCCCCCC(=O)*; γGlu = O=C(O)[C@H](CCC(=O)[*:2])N[*:1]

Key:
Sprague Dawley (SD) rats = assay: ASSAY (I) efficacy testing on appetite (food intake) using an ad libitum fed rat model; type: in vivo; settings: rat, 30 nmol/kg
In short: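 Ad libitum fed SD rats (200–250 g) were housed singly on a reversed light/dark cycle and given one 0.01–3 mg/kg dose ip, po or sc just before lights-off, with 5–8 per dose group plus vehicle controls. Food intake was recorded hourly for 7 h, then at 24 h and sometimes 48 h; Grubbs outliers were excluded.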

[1] = ASSAY (III) ThT fibrillation assay for physical stability; type: physicochemical
In short: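 Formulations with 1 μM ThT, pH adjusted as required, incubated at 37 °C with 960 rpm orbital shaking; fluorescence (ex 444/em 485 nm) read every 20 min. Fibrillation reported as mean ThT fluorescence ± SD of 4–8 replicates at time points; polypeptide concentration measured by reverse-phase HPLC before and after, post-centrifugation.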

[2] = ASSAY (IV) determination of solubility; type: physicochemical
In short: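 Polypeptide in water at […] mixed 1:1 with 100 mM buffers of pH 3.0-8.0 (glycylglycine pH 3-5, bistrispropane pH 6-8). Held 18 h at room temperature, then centrifuged; concentration remaining in solution measured by UPLC.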

[3] = bistrispropane buffer, pH 6.5, read-out: Solubility pH 6.5 Concentration
[4] = bistrispropane buffer, pH 7.5, read-out: Solubility pH 7.5 Concentration
[5] = bistrispropane buffer, pH 6.0, read-out: Solubility pH 6.0 Concentration
[6] = bistrispropane buffer, pH 7.0, read-out: Solubility pH 7.0 Concentration
[7] = bistrispropane buffer, pH 8.0, read-out: Solubility pH 8.0 Concentration
[8] = glycylglycine buffer, pH 3.0, read-out: Solubility pH 3.0 Concentration
[9] = glycylglycine buffer, pH 4.0, read-out: Solubility pH 4.0 Concentration
[10] = glycylglycine buffer, pH 5.0, read-out: Solubility pH 5.0 Concentration

For `CC[C@H](C)[C@H](NC(=O)[C@H](C)NC(=O)CNC(=O)[C@H](Cc1ccccc1)NC(=O)[C@H](CC(N)=O)NC(=O)[C@@H]1CCCN1C(=O)[C@H](CO)NC(=O)[C@H](CO)NC(=O)[C@H](Cc1c[nH]cn1)NC(=O)[C@H](CCCNC(=N)N)NC(=O)[C@H](CC(C)C)NC(=O)[C@H](Cc1ccccc1)NC(=O)[C@H](CC(N)=O)NC(=O)[C@H](C)NC(=O)[C@H](CC(C)C)NC(=O)[C@H](CCCNC(=N)N)NC(=O)[C@H](CCC(N)=O)NC(=O)[C@@H](NC(=O)[C@H](C)NC(=O)[C@@H]1CSSC[C@H](NC(=O)[C@H](CCCCN)NC(=O)CC[C@H](NC(=O)CCCCCCCCCCCCCCCCCCC(=O)O)C(=O)O)C(=O)N[C@@H](CC(N)=O)C(=O)N[C@@H]([C@@H](C)O)C(=O)N[C@@H](C)C(=O)N[C@@H]([C@@H](C)O)C(=O)N1)[C@@H](C)O)C(=O)N1CCC[C@H]1C(=O)N[C@@H](CO)C(=O)N[C@@H](CO)C(=O)N[C@H](C(=O)N[C@@H](CC(N)=O)C(=O)N[C@H](C(=O)NCC(=O)N[C@@H](CO)C(=O)N[C@@H](CCCCN)C(=O)N[C@H](C(=O)N[C@@H](Cc1ccc(O)cc1)C(N)=O)[C@@H](C)O)C(C)C)[C@@H](C)O` [Example 34], the “Food intake reduction 0-24 h 30 nmol/kg (%)” value (Sprague Dawley (SD) rats) was 37%, the “Food intake reduction 24-48 h 30 nmol/kg (%)” value (Sprague Dawley (SD) rats) was 25% and the “ThT pH 4.0 lag time (h)” value [1] was 35 h. For the same molecule, the solubility at 18 h [2, 3] was ≥ 200 µM, the solubility at 18 h [2, 4] was ≥ 200 µM and the solubility at 18 h [2, 5] was ≥ 200 µM. The solubility at 18 h [2, 6] was ≥ 200 µM, the solubility at 18 h [2, 7] was ≥ 200 µM and the solubility at 18 h [2, 8] was ≥ 200 µM. The solubility at 18 h [2, 9] was ≥ 200 µM and the solubility at 18 h [2, 10] was ≥ 200 µM.
With `CC[C@H](C)[C@H](NC(=O)[C@H](C)NC(=O)CNC(=O)[C@H](Cc1ccccc1)NC(=O)[C@H](CC(N)=O)NC(=O)[C@@H]1CCCN1C(=O)[C@H](CO)NC(=O)[C@H](CO)NC(=O)[C@H](Cc1c[nH]cn1)NC(=O)[C@H](CCCNC(=N)N)NC(=O)[C@H](CC(C)C)NC(=O)[C@H](Cc1ccccc1)NC(=O)[C@H](CC(N)=O)NC(=O)[C@H](C)NC(=O)[C@H](CC(C)C)NC(=O)[C@H](CCCNC(=N)N)NC(=O)[C@H](CCC(N)=O)NC(=O)[C@@H](NC(=O)[C@H](C)NC(=O)[C@@H]1CSSC[C@H](NC(=O)[C@@H](N)CCCCNC(=O)CC[C@H](NC(=O)CCCCCCCCCCCCCCCCCCC(=O)O)C(=O)O)C(=O)N[C@@H](CC(N)=O)C(=O)N[C@@H]([C@@H](C)O)C(=O)N[C@@H](C)C(=O)N[C@@H]([C@@H](C)O)C(=O)N1)[C@@H](C)O)C(=O)N1CCC[C@H]1C(=O)N[C@@H](CO)C(=O)N[C@@H](CO)C(=O)N[C@H](C(=O)N[C@@H](CC(N)=O)C(=O)N[C@H](C(=O)NCC(=O)N[C@@H](CO)C(=O)N[C@@H](CCCCN)C(=O)N[C@H](C(=O)N[C@@H](Cc1ccc(O)cc1)C(N)=O)[C@@H](C)O)C(C)C)[C@@H](C)O` [Example 35] (H-K([γGlu-C20 diacid])CNTATCATQRLANFLRHSSPNFGAIPSSTNVGSKTY-NH2; disulfide 2-7; N-terminus assumed) the “Food intake reduction 0-24 h 30 nmol/kg (%)” value (Sprague Dawley (SD) rats) was 51%, the “Food intake reduction 24-48 h 30 nmol/kg (%)” value (Sprague Dawley (SD) rats) was 15% and the “ThT pH 4.0 lag time (h)” value [1] was 45 h. For the same molecule, the solubility at 18 h [2, 3] was ≥ 200 µM, the solubility at 18 h [2, 4] was ≥ 200 µM and the solubility at 18 h [2, 5] was ≥ 200 µM. For the same molecule, the solubility at 18 h [2, 6] was ≥ 200 µM, the solubility at 18 h [2, 7] was ≥ 200 µM and the solubility at 18 h [2, 8] was ≥ 200 µM. The solubility at 18 h [2, 9] was ≥ 200 µM and the solubility at 18 h [2, 10] was ≥ 200 µM.
For `CC[C@H](C)[C@H](NC(=O)[C@H](C)NC(=O)CNC(=O)[C@H](Cc1ccccc1)NC(=O)[C@H](CC(N)=O)NC(=O)[C@@H]1CCCN1C(=O)[C@H](CO)NC(=O)[C@H](CO)NC(=O)[C@H](Cc1c[nH]cn1)NC(=O)[C@H](CCCNC(=N)N)NC(=O)[C@H](CC(C)C)NC(=O)[C@H](Cc1ccccc1)NC(=O)[C@H](CC(N)=O)NC(=O)[C@H](C)NC(=O)[C@H](CC(C)C)NC(=O)[C@H](CCCNC(=N)N)NC(=O)[C@H](CCC(N)=O)NC(=O)[C@@H](NC(=O)[C@H](C)NC(=O)[C@@H]1CSSC[C@H](NC(=O)[C@@H](N)CCCCNC(=O)COCCOCCNC(=O)CC[C@H](NC(=O)CCCCCCCCCCCCCCCCCCC(=O)O)C(=O)O)C(=O)N[C@@H](CC(N)=O)C(=O)N[C@@H]([C@@H](C)O)C(=O)N[C@@H](C)C(=O)N[C@@H]([C@@H](C)O)C(=O)N1)[C@@H](C)O)C(=O)N1CCC[C@H]1C(=O)N[C@@H](CO)C(=O)N[C@@H](CO)C(=O)N[C@H](C(=O)N[C@@H](CC(N)=O)C(=O)N[C@H](C(=O)NCC(=O)N[C@@H](CO)C(=O)N[C@@H](CCCNC(=N)N)C(=O)N[C@H](C(=O)N[C@@H](Cc1ccc(O)cc1)C(N)=O)[C@@H](C)O)C(C)C)[C@@H](C)O` [Example 38], the “Food intake reduction 0-24 h 30 nmol/kg (%)” value (Sprague Dawley (SD) rats) was 47%, the “Food intake reduction 24-48 h 30 nmol/kg (%)” value (Sprague Dawley (SD) rats) was 0% and the “ThT pH 4.0 lag time (h)” value [1] was 27 h. The solubility at 18 h [2, 3] was ≥ 200 µM, the solubility at 18 h [2, 4] was ≥ 200 µM and the solubility at 18 h [2, 5] was ≥ 200 µM. For the same molecule, the solubility at 18 h [2, 6] was ≥ 200 µM, the solubility at 18 h [2, 7] was ≥ 200 µM and the solubility at 18 h [2, 8] was ≥ 200 µM. The solubility at 18 h [2, 9] was ≥ 200 µM and the solubility at 18 h [2, 10] was ≥ 200 µM.
For `CC[C@H](C)[C@H](NC(=O)[C@H](C)NC(=O)CNC(=O)[C@H](Cc1ccccc1)NC(=O)[C@H](CC(N)=O)NC(=O)[C@@H]1CCCN1C(=O)[C@H](CO)NC(=O)[C@H](CO)NC(=O)[C@H](Cc1c[nH]cn1)NC(=O)[C@H](CCCNC(=N)N)NC(=O)[C@H](CC(C)C)NC(=O)[C@H](Cc1ccccc1)NC(=O)[C@H](CC(N)=O)NC(=O)[C@H](C)NC(=O)[C@H](CC(C)C)NC(=O)[C@H](CCCNC(=N)N)NC(=O)[C@H](CCC(N)=O)NC(=O)[C@@H](NC(=O)[C@H](C)NC(=O)[C@@H]1CSSC[C@H](NC(=O)[C@H](CCCCN)NC(=O)CC[C@H](NC(=O)CCCCCCCCCCCCCCCCCCC(=O)O)C(=O)O)C(=O)N[C@@H](CC(N)=O)C(=O)N[C@@H]([C@@H](C)O)C(=O)N[C@@H](C)C(=O)N[C@@H]([C@@H](C)O)C(=O)N1)[C@@H](C)O)C(=O)N1CCC[C@H]1C(=O)N[C@@H](CO)C(=O)N[C@@H](CO)C(=O)N[C@H](C(=O)N[C@@H](CC(N)=O)C(=O)N[C@H](C(=O)NCC(=O)N[C@@H](CCCNC(=N)N)C(=O)N[C@@H](CC(N)=O)C(=O)N[C@H](C(=O)N[C@@H](Cc1ccc(O)cc1)C(N)=O)[C@@H](C)O)C(C)C)[C@@H](C)O` [Example 39] ({C20 diacid-γGlu}-KCNTATCATQRLANFLRHSSPNFGAIPSSTNVGRNTY-NH2; disulfide 2-7), the “Food intake reduction 0-24 h 30 nmol/kg (%)” value (Sprague Dawley (SD) rats) was 36%, the “Food intake reduction 24-48 h 30 nmol/kg (%)” value (Sprague Dawley (SD) rats) was 8% and the “ThT pH 4.0 lag time (h)” value [1] was 45 h. The solubility at 18 h [2, 3] was ≥ 200 µM, the solubility at 18 h [2, 4] was ≥ 200 µM and the solubility at 18 h [2, 5] was ≥ 200 µM. For the same molecule, the solubility at 18 h [2, 6] was ≥ 200 µM, the solubility at 18 h [2, 7] was ≥ 200 µM and the solubility at 18 h [2, 8] was ≥ 200 µM. The solubility at 18 h [2, 9] was ≥ 200 µM and the solubility at 18 h [2, 10] was ≥ 200 µM.
For `CC[C@H](C)[C@H](NC(=O)[C@H](C)NC(=O)CNC(=O)[C@H](Cc1ccccc1)NC(=O)[C@H](CC(N)=O)NC(=O)[C@@H]1CCCN1C(=O)[C@H](CO)NC(=O)[C@H](CO)NC(=O)[C@H](Cc1c[nH]cn1)NC(=O)[C@H](CCCNC(=N)N)NC(=O)[C@H](CC(C)C)NC(=O)[C@H](Cc1ccccc1)NC(=O)[C@H](CC(N)=O)NC(=O)[C@H](C)NC(=O)[C@H](CC(C)C)NC(=O)[C@H](CCCNC(=N)N)NC(=O)[C@H](CCC(N)=O)NC(=O)[C@@H](NC(=O)[C@H](C)NC(=O)[C@@H]1CSSC[C@H](NC(=O)[C@H](CCCCN)NC(=O)CC[C@H](NC(=O)CCCCCCCCCCCCCCCCCCC(=O)O)C(=O)O)C(=O)N[C@@H](CC(N)=O)C(=O)N[C@@H]([C@@H](C)O)C(=O)N[C@@H](C)C(=O)N[C@@H]([C@@H](C)O)C(=O)N1)[C@@H](C)O)C(=O)N1CCC[C@H]1C(=O)N[C@@H](CO)C(=O)N[C@@H](CO)C(=O)N[C@H](C(=O)N[C@@H](CC(N)=O)C(=O)N[C@H](C(=O)NCC(=O)N[C@@H](Cc1c[nH]cn1)C(=O)N[C@@H](CC(N)=O)C(=O)N[C@H](C(=O)N[C@@H](Cc1ccc(O)cc1)C(N)=O)[C@@H](C)O)C(C)C)[C@@H](C)O` [Example 40], the “Food intake reduction 0-24 h 30 nmol/kg (%)” value (Sprague Dawley (SD) rats) was 51%, the “Food intake reduction 24-48 h 30 nmol/kg (%)” value (Sprague Dawley (SD) rats) was 26% and the “ThT pH 4.0 lag time (h)” value [1] was 26 h. The solubility at 18 h [2, 3] was ≥ 200 µM, the solubility at 18 h [2, 4] was ≥ 200 µM and the solubility at 18 h [2, 5] was ≥ 200 µM. The solubility at 18 h [2, 6] was ≥ 200 µM, the solubility at 18 h [2, 7] was ≥ 200 µM and the solubility at 18 h [2, 8] was ≥ 200 µM. For the same molecule, the solubility at 18 h [2, 9] was ≥ 200 µM and the solubility at 18 h [2, 10] was ≥ 200 µM.
